Data on three compounds can be found in patent US10072034B2, “Kinase inhibitors” (Respivert Limited, priority 2016, dated 2018).

≈ marks a conversion by molar mass, not a printed value. Like-named read-outs stand apart in the source and are kept apart here.

Broadly, the IC50 is the concentration that inhibits the measured activity by half.

One data set deals with Syk (Homo sapiens (Human), UniProt P43405). Put plainly: Syk enzyme inhibition (FRET, Z-LYTE). It counts as biochemical. As to the method:
(§1) The enzyme inhibitory activities of compounds disclosed herein are determined by FRET using synthetic peptides labelled with both donor and acceptor fluorophores (Z-LYTE, Invitrogen Ltd., Paisley, UK).
(§2) The inhibitory activities of compounds of the invention against c-Src and Syk enzymes (Invitrogen), are evaluated in a similar fashion to that described hereinabove. The relevant enzyme (3000 ng/mL or 2000 ng/mL respectively, 2.5 μL) is incubated with the test compound (either 1 μg/mL, 0.1 μg/mL, 0.01 μg/mL, or 0.001 μg/mL, 2.5 μL each) for 2 hr at RT. The FRET peptides (8 μM. 2.5 μL), and appropriate ATP solutions (2.5 μL, 800 μM for c-Src, and 60 μM ATP for Syk) are then added to the enzymes/compound mixtures and the mixture incubated for 1 hr. Development reagent (protease, 5 μL) is added for 1 hr prior to detection in a fluorescence microplate reader (Varioskan® Flash, ThermoFisher Scientific).
(§3) In all cases, the site-specific protease cleaves non-phosphorylated peptide only and eliminates the FRET signal. Phosphorylation levels of each reaction are calculated using the ratio of coumarin emission (donor) over fluorescein emission (acceptor), for which high ratios indicate high phosphorylation and low ratios indicate low phosphorylation levels. […]

The next data set deals with IL-8 release in PBMCs. Put plainly: LPS-induced IL-8 release in PBMC cells (assay (b)). It is filed as cell-based. The note with it: Homo sapiens, LPS-stimulated PBMCs. The text has this: Peripheral blood mononuclear cells (PBMCs) from healthy subjects are separated from whole blood using a density gradient (Lymphoprep, Axis-Shield Healthcare). […] The supernatant is harvested for determination of IL-8 and TNFα concentrations by sandwich ELISA (Duo-set, R&D systems) and read on the fluorescence microplate reader (Varioskan® Flash, ThermoFisher Scientific).

Data set [1] has as its system IFN gamma release in PBMCs. The data set can be described thus: IFN gamma release in CD3/CD28 stimulated PBMC cells (assay (c)). It counts as cell-based. The note with it: Homo sapiens, read-out: IC50 Values in PBMCs IFNγ. As to the method: PBMCs from healthy subjects are separated from whole blood using a density gradient (Lymphoprep, Axis-Shield Healthcare). Cells are added to a 96 well plate pre-coated with a mixture of CD3/CD28 monoclonal antibodies (0.3 μg/mL eBioscience and 3 μg/mL BD Pharmingen respectively). Compound at the desired concentration is then added to the wells and the plate left for 3 days under normal tissue culture conditions. Supernatants are harvested and IL-2 and IFN gamma release determined by Sandwich ELISA (Duo-set, R&D System). The IC50 is determined from the dose response curve.

Data set [2] can be described thus: Solubility in fasted-state simulated colonic fluid (FaSSCoF) at pH 6.5. To be noted: fasted-state simulated colonic fluid (FaSSCoF), 25 °C, pH 6.5, fassgf or other biorelevant, thermodynamic from solid, pH 6.5, 25° C. It counts as physicochemical. The method, then: The solubilities of compounds of the invention in FaSSCoF at pH 6.5 are determined using a modification of a previously-reported procedure (Vertzoni, M., et al. Pharm. Res. 2010, 27, 2187-2196). In place of the bile salt extract employed in the original procedure (which extract is no longer available), the modified procedure uses a mixture of sodium taurocholate (0.15 g), glycocholic acid (0.15 g), ursodeoxycholic acid (0.05 g), cholic acid (0.05 g), and glycodeoxycholic acid (0.05 g). These five bile acids are ground together with a mortar and pestle to produce a fine white powder that is incorporated into the FaSSCoF, as outlined below.
FaSSCoF medium: Tris(hydroxymethyl)aminomethane (Tris; 0.275 g) and maleic acid (0.44 g) are dissolved in water (35 mL) to give a solution whose pH is adjusted to 6.5 by treatment with 0.5M NaOH (ca. 12 mL). The solution is then made up to 50 mL with water. A portion of this Tris/maleate buffer solution (ca. 25 mL) is added to a 0.5 L round-bottomed flask, before being treated with 0.00565 g of the bile acid mixture described above. Solutions of phosphatidylcholine (0.0111 g) in DCM (0.15 mL) and palmitic acid (0.0013 g) in DCM (0.15 mL) are added, then the organic solvent is evaporated off under reduced pressure at 40° C. until a clear solution, with no perceptible DCM odour, is achieved. The volume of the evaporated solution is adjusted to 50 mL by addition of the remainder of Tris/maleate buffer, then BSA (0.115 g) is added, before being dissolved by gentle agitation.
Solubility Determination: Test compounds are suspended in the pH 6.5 FaSSCoF medium to give a maximum final concentration of 2-10 mg/mL. The suspensions are equilibrated at 25° C. for 24 h, before being filtered through a glass fibre C filter. The filtrates are then diluted as appropriate for injection and quantification by HPLC with reference to a standard. Different volumes of the standard, diluted and undiluted sample solutions are injected and the solubilities are calculated using the peak areas determined by integration of the peak found at the same retention time as the principal peak in the standard injection.

A further data set deals with Jurkat cells. The data set can be described thus: Cell cytotoxicity assay, Jurkat cell viability (assay (r)). It counts as cell-based, human. To be noted: 24 hours. As to the method: 1×10^5 Jurkat cells (immortalised human T lymphocytes) are added to the appropriate number of wells of a 96 well plate in 100 μL of media (RPMI supplemented with 10% foetal bovine serum). 1 μL of DMSO control (final concentration 1.0% v/v) or test compound (final concentration 20, 5 or 1 μg/mL) is added to the wells and incubated at 37° C., 5% CO2. After 24 hours, the plate is centrifuged at 1200 rpm for 3 minutes and the supernatant discarded. Cells are then resuspended in 150 μL (final concentration 7.5 μg/mL) of propidium iodide (PI) in PBS and incubated at 37° C., 5% CO2 for 15 minutes. After 15 minutes, cells are analysed by flow cytometry (BD accuri) using the FL3 window. The % viability is calculated as the % of cells that are P negative in the test wells normalised to the DMSO control.

In another data set the target is p38 MAPKα (Homo sapiens (Human), UniProt Q16539). Put plainly: p38 MAPKα enzyme inhibition (FRET, Z-LYTE; Method 2). It is filed as biochemical. The method, then: as §1
Sequence of p38 MAPKα (Q16539 whole entry, canonical isoform): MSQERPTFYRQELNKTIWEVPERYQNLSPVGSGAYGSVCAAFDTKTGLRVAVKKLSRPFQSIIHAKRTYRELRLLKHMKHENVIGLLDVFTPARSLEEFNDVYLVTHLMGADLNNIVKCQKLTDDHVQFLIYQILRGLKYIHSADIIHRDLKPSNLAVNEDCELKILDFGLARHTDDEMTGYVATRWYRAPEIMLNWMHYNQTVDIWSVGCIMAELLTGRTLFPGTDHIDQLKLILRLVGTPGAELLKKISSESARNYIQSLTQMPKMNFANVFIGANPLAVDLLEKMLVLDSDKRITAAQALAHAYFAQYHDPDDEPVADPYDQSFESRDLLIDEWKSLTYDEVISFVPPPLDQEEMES
The inhibitory activities of test compounds against the p38 MAPKα isoform (MAPK14: Invitrogen) are evaluated indirectly by determining the level of activation/phosphorylation of the down-stream molecule, MAPKAP-K2. The p38 MAPKα protein (80 ng/mL, 2.5 μL) is mixed with the test compound (2.5 μL of either 4 μg/mL, 0.4 μg/mL, 0.04 μg/mL or 0.004 μg/mL) for 2 hr at RT. […] The mixture is incubated for 1 hr at RT. Development reagent (protease, 5 μL) is added for 1 hr prior to detection in a fluorescence microplate reader (Varioskan® Flash, ThermoFisher Scientific).
This method follows the same steps as Method 1 above, but utilises a higher concentration of the p38 MAPKα protein (2.5 μL of 200 ng/mL protein instead of 2.5 μL of 80 ng/mL protein) for mixing with the test compound (tested at either 1 μg/mL, 0.1 μg/mL, 0.01 μg/mL or 0.001 μg/mL).
as §3

The next data set concerns the target c-Src (Homo sapiens (Human), UniProt P12931). The data set can be described thus: c-Src enzyme inhibition (FRET, Z-LYTE). It is filed as biochemical. The method, then: as §1, §2, §3
The nature of data set [3]: Solubility and dissolution rate in phosphate-buffered saline (further studies). It is filed as physicochemical. To be noted: pH 6.5 with 0.5% by weight of simulated intestinal fluid or pH 7.2.
Where [4] appears, read: Run 1, read-out: pH 6.5 FaSSCoF Solubility Run 1.
Setting [5] is: Run 2, read-out: pH 6.5 FaSSCoF Solubility Run 2.

Sequence of c-Src (P12931 whole entry, looked up): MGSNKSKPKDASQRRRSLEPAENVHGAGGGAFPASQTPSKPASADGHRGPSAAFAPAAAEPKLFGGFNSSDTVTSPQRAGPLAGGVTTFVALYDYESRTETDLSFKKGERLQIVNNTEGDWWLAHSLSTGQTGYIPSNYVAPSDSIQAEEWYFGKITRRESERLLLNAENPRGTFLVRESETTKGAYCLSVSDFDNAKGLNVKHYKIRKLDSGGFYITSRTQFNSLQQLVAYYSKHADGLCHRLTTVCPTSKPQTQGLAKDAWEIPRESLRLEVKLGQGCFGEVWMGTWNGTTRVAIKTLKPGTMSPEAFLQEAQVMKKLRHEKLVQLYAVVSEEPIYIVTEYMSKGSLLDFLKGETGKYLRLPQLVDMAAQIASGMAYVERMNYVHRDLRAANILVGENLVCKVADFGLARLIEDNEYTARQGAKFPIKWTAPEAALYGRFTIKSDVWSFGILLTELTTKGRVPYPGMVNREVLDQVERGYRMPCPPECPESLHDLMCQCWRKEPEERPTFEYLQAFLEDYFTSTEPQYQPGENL

Consider `COc1cc(Nc2nccc(Oc3ccc(NC(=O)Nc4cc(C(C)(C)C)cc(NS(C)(=O)=O)c4OC)c4ccccc34)n2)cc(OCCOCCOCC(=O)O)c1` [Example 2, 2-(2-(2-(3-((4-((4-(3-(5-(tert-Butyl)-2-methoxy-3-(methylsulfonamido)phenyl)ureido)-naphthalen-1-yl)oxy)pyrimidin-2-yl)amino)-5-methoxyphenoxy)ethoxy)ethoxy)acetic acid], for which the IC50 against Syk is 8 nM; with IL-8 release in PBMCs, 24.6 nM; in data set [1], 39.4 nM; at p38 MAPKα, 23 nM; against c-Src, 14 nM. The solubility thermodynamic at 24 h is 90 µg/mL (≈ 110 µM) in data set [2] (setting [4]) and 60 µg/mL (≈ 73.3 µM) in data set [2] (setting [5]). Also, the “% Viability at 1 μg/mL” value in the data set on Jurkat cells came to 99%. Moreover, in the data set with Jurkat cells, the “% Viability at 5 μg/mL” value came to 99%. Further, in the data set with Jurkat cells, the “% Viability at 20 μg/mL” value is reported as 97%.

Take `COc1cc(Nc2cc(Oc3ccc(NC(=O)Nc4cc(C(C)(C)C)cc(NS(C)(=O)=O)c4OC)c4ccccc34)ccn2)cc(OCCOCCOCC(=O)[O-])c1.[Na+]` [Example 31, 2-(2-(2-(3-((4-((4-(3-(5-(tert-Butyl)-2-methoxy-3-(methylsulfonamido)phenyl)ureido)-naphthalen-1-yl)oxy)pyridin-2-yl)amino)-5-methoxyphenoxy)ethoxy)ethoxy)acetic acid, sodium salt]: the solubility thermodynamic at 24 h in data set [2] (setting [4]) was 1900 µg/mL. The solubility thermodynamic at 24 h in data set [2] (setting [5]) is 2100 µg/mL. Also, in data set [3], the “Dissolution rate relative to Reference Compounds A (hydrochloride salt) and B” value is “faster dissolution rate”; the “Solubility relative to Reference Compounds A (hydrochloride salt) and B” value is recorded as “more soluble than”.

As for `COCC(=O)Nc1cc(Oc2ccc(NC(=O)Nc3cc(C(C)(C)C)nn3-c3ccc(C)cc3)c3ccccc23)ccn1` [Reference compound, N-(4-(4-(3-(3-tert-butyl-1-p-tolyl-1H-pyrazol-5-yl)ureido)naphthalen-1-yloxy)pyridin-2-yl)-2-methoxyacetamide, reference compound], in the data set on Jurkat cells, the “% Viability at 1 μg/mL” value was found to be 29%, the “% Viability at 5 μg/mL” value is listed as 26% and the “% Viability at 20 μg/mL” value was 24%.
